Source: patent US5428158A, “2-substituted indane-2-mercaptoacetylamide derivatives useful as inhibitors of enkephalinase and ace” (Merrell Dow Pharmaceuticals Inc., priority 1993, dated 1995)

How the values were obtained:
ACE = ACE (Homo sapiens, UniProt P12821); test: ACE inhibition, spectrophotometric substrate; assay type: biochemical
Excerpt: The enzymatic activity of ACE is monitored using the spectrophotometric substrate described by Holmquist et al. [Anal. Biochem. 95, 540-548 (1979)]and the buffer system described by Ryan [Methods of Enzymatic Analysis, 3rd ed., H. U. Bergmeyer, editor; vol. V, Verlag Chemie, Weinheim, 1983, pp. 20-34].
(§1) The results of the analysis of enzymatic activity as described in Table 1 indicate that the compounds of the present invention are inhibitors of enkephalinase as well as inhibitors of ACE.

Enkephalinase = biological target: T1, Enkephalinase (Rattus norvegicus, UniProt P07861); test: Enkephalinase inhibition, fluorometric, substrate dansyl-D-AlaGly(p-nitro)PheGly; assay type: biochemical; details: 50 mM HEPES, pH 7.4, 25° C., 12 μM substrate; read-out: ENK, Ki
T1 construct: Enkephalinase is partially purified from rat kidney; from tissue; host or cells: rat kidney (microvilli fraction; Triton X-100 extract or proteolytic solubilisation, then Mono Q FPLC)
T1 sequence (P07861 1-750): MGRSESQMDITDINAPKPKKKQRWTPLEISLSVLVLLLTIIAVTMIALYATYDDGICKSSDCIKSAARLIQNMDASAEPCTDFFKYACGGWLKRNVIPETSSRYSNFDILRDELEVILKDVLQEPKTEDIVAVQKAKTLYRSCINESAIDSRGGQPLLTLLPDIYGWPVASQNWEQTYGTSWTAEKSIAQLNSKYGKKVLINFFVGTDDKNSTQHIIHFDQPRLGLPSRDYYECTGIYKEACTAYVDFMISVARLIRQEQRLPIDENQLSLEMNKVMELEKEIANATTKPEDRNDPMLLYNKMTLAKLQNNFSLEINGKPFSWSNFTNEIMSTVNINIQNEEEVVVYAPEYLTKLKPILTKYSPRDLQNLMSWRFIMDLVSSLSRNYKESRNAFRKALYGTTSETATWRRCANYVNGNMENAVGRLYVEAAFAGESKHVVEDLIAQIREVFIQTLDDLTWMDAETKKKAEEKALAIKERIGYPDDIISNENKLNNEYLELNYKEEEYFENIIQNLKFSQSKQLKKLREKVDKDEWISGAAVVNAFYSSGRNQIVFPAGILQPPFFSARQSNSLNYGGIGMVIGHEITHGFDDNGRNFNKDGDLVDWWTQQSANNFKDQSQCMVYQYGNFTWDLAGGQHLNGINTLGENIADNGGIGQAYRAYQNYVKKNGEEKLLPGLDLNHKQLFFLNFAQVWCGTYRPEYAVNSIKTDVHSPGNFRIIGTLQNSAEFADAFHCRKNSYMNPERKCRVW
Excerpt: Enkephalinase is partially purified from rat kidney. The enzyme is extracted from the microvilli fraction by using Triton X-100 according to the method of Malfroy and Schwartz [J. Biol. Chem. 259, 14365-14370 (1984)] or by using a proteolytic treatment according to the method of Almenoff and Orlowski [Biochem. 22 590-599 (1983)]. The enzyme is further purified by anio exchange chromatography (Mono Q™ column, Pharmacia) using a Pharmacia FPLC system. The enzyme activity may be measured by the fluorometric methods of Florentin et al. [Anal. Biochem. 141, 62-69 (1984 ) ] or of Almenoff and Orlowski [J. Neurochemistry 42,151-157 (1984)]. […] The substrate (and inhibitor) is added from a concentrated stock solution in DMSO (up to 0.1 mL DMSO final volume). The enzyme in a small volume (approximately 0.1 μg of FPLC purified protein) is added to initiate the reaction and the rate of fluorecense increase is recorded continuously using a fluorometer (excitation at 339 nm, emission at 562 nm).
as §1

myointimal proliferation = details: after vascular injury; Davis et al. 1992; cited from earlier work

Chain of ACE (P12821 30-1306, species assumed): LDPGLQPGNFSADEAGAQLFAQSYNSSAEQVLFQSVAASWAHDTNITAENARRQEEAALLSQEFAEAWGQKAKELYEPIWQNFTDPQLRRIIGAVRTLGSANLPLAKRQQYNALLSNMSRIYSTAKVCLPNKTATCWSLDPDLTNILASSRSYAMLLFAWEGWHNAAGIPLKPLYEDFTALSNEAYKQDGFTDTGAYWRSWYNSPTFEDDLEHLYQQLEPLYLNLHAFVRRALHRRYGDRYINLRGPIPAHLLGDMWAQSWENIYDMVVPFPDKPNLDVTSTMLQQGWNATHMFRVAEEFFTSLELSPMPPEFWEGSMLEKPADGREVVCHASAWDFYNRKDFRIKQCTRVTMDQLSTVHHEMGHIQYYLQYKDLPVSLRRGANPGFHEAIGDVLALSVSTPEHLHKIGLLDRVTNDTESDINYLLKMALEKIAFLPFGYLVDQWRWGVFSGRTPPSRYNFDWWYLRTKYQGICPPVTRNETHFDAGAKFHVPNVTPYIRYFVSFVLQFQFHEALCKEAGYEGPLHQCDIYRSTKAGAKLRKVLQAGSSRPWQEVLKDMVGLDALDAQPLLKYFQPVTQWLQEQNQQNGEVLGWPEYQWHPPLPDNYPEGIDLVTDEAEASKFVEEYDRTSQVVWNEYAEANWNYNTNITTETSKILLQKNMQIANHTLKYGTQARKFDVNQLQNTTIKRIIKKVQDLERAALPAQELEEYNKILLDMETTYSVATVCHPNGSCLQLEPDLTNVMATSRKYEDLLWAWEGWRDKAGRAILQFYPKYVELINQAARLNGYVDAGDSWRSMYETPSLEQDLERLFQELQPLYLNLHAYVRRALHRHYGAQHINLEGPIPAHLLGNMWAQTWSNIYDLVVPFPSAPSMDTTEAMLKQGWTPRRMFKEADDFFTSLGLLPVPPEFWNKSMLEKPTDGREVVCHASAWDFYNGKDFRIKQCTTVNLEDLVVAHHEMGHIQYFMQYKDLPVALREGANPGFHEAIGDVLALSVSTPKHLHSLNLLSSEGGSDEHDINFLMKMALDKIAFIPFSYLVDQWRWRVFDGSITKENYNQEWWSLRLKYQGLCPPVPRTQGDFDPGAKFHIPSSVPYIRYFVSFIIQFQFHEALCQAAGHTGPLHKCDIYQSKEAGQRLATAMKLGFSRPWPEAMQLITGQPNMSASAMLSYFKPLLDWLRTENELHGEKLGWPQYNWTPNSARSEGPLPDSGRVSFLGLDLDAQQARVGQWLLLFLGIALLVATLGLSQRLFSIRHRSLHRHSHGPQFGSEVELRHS

For `O=C(O)[C@@H]1CCC[C@@H]2c3ccccc3C[C@H](NC(=O)C3(S)CCCC3)C(=O)N21` [102,769, [4S-[4α, 7α(R*), 12bβ]]-7-[(1-Thio-1-oxocyclopentane)methylamino]-1,2,3,4,6,7,8,12b-octahydro-6-oxopyrido[2,1-a][2]benzazepine-4-carboxylic acid], the Ki (ACE) was < 7 nM and the Ki (Enkephalinase) was < 0.2 nM.
For `CC(C)(S)C(=O)N[C@H]1Cc2ccccc2[C@H]2CCC[C@@H](C(=O)O)N2C1=O` [101,069, [4S-[4α, 7α(R*), 12bβ]]-7-[(2-Thio-1-oxo-2-methyl)-2-propylamino]-1,2,3,4,6,7,8,12b-octahydro-6-oxopyrido[2,1-a][2]benzazepine-4-carboxylic acid], the Ki (ACE) was > 7 nM and the Ki (Enkephalinase) was 4 nM.
For `O=C(O)[C@@H]1CCC[C@@H]2c3ccccc3C[C@H](NC(=O)C3(S)Cc4ccccc4C3)C(=O)N21` [102,708, [4S-[4α, 7α(R*), 12bβ]]-7-[(2-Thio-2-oxoindan)methylamino]-1,2,3,4,6,7,8,12b-octahydro-6-oxopyrido[2,1-a][2]benzazepine-4-carboxylic acid], the Ki (ACE) was < 45 nM and the Ki (Enkephalinase) was < 0.2 nM.
For `O=C(O)[C@@H]1CCC[C@@H]2c3ccccc3C[C@H](NC(=O)C3(CCS)Cc4ccccc4C3)C(=O)N21` [100,273, [4S-[4α, 7α(R*), 12bβ]]-7-[(2-(2-mercaptoethyl)-2-oxoindan)methylamino]1,2,3,4,6,7,8,12b-octahydro-6-oxopyrido[2,1-a][2]benzazepine-4-carboxylic acid], the Ki (ACE) was > 250 nM and the Ki (Enkephalinase) was 0.8 nM.
In the case of `CCOC(=O)[C@H](CCSC)NC(=O)[C@@H](CSC(C)=O)Cc1ccccc1C` [SCH42495], the myointimal proliferation (myointimal proliferation) is listed as “prevent myointimal proliferation after vascular injury”.
With `O=C(O)[C@@H]1CCC[C@@H]2c3ccccc3C[C@H](NC(=O)C3(CS)Cc4ccccc4C3)C(=O)N21` [100,346, [4S-[4α, 7α(R*), 12bβ]]-7-[(2-Mercaptomethyl-2-oxoindan)methylamino]-1,2,3,4,6,7,8,12b-octahydro-6-oxopyrido[2,1-a][2]benzazepine-4-carboxylic acid] the Ki (ACE) was < 500 nM and the Ki (Enkephalinase) was < 0.2 nM.
